For experiment [1], the target named is Transient receptor potential cation channel subfamily V member 1 (Rattus norvegicus, UniProt O35433).
The target of experiment [2] is Transient receptor potential cation channel subfamily V member 1 (Homo sapiens, UniProt Q8NER1).
Transient receptor potential cation channel subfamily V member 1 (Homo sapiens, UniProt Q8NER1), sequence (Q8NER1 whole entry): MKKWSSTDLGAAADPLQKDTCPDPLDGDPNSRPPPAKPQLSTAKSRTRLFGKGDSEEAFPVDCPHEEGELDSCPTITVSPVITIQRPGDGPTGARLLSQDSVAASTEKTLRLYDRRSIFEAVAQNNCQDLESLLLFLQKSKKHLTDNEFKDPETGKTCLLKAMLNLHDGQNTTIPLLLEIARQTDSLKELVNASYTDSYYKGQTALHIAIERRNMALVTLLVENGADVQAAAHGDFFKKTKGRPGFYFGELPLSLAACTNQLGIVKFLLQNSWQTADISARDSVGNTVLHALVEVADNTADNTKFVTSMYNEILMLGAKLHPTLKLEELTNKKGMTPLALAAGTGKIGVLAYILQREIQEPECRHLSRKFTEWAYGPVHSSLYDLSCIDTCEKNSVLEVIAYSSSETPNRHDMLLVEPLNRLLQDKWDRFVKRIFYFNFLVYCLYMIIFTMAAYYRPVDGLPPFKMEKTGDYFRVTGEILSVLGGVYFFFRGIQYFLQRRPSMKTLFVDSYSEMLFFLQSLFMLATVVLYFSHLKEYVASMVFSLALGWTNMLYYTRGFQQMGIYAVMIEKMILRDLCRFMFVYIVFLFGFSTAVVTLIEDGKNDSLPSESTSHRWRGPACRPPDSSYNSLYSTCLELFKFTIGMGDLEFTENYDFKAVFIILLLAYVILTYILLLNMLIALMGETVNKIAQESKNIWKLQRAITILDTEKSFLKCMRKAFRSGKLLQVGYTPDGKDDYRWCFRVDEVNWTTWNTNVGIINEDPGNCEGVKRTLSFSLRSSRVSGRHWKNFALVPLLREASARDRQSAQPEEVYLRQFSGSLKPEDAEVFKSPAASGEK

Transient receptor potential cation channel subfamily V member 1 (Rattus norvegicus, UniProt O35433), sequence (O35433 whole entry): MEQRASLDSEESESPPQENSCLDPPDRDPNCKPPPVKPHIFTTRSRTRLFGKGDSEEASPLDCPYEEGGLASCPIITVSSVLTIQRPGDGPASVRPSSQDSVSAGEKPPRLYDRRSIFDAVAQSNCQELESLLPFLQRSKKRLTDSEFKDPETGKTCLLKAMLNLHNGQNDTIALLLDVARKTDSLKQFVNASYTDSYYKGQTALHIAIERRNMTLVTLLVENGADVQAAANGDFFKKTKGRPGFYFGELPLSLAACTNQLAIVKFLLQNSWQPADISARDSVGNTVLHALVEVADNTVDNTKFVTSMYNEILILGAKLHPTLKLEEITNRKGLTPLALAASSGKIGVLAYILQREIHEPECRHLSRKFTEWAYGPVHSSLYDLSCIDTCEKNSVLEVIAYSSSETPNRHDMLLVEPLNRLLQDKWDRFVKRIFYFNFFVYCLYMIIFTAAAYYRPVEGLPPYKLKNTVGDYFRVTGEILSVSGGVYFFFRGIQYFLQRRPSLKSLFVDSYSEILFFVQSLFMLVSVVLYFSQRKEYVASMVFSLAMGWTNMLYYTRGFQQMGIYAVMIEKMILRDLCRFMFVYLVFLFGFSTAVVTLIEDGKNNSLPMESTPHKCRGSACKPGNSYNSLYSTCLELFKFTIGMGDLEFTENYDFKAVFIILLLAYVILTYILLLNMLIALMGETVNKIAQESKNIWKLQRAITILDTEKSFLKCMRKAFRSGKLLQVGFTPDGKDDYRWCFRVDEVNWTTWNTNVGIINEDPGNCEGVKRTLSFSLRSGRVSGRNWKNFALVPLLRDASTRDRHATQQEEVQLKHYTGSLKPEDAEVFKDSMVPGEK

In the case of `C=C(C)[C@]12C[C@@H](C)[C@@]34O[C@](Cc5ccccc5)(O[C@@H]1[C@@H]3C(COC(=O)Cc1cc(I)c(O)c(OC)c1)=CC[C@@H]1C(=O)C(C)=C[C@H]14)O2` [5'-IODORESINIFERATOXIN], the Ki turned out to be 0.39 nM in experiment [1] and 6.7 nM in experiment [2].

Regarding `Oc1cc2c(cc1O)CN(C(=S)NCCc1ccc(Cl)cc1)CCC2` [N-[2-(4-chlorophenyl)ethyl]-7,8-dihydroxy-2,3,4,5-tetrahydro-1H-2-benzazepine-2-carbothioamide], the affinity in experiment [1] corresponds to a Ki of 4300 nM.
